Patent publication US12564193B2, “Isoxazoline-substituted benzamide derivative, and preparation method therefor and use thereof” (SHANDONG UNITED PESTICIDE INDUSTRY CO., LTD., priority 2020, dated 2026)
Read-outs that look alike come from different tables or passages of the source.

Experiments:
Format in all cases: in vivo
[1] = test system: Frankliniella occidentalis; test: Insecticidal activity, spray on pre-infested radish plants: Frankliniella occidentalis; settings: for pest or weed control at 1 ppm / pest or weed control at 10 ppm / pest or weed control at 25 ppm: Frankliniella occidentalis, 144 h, read-out: fatality rate on Frankliniella occidentalis; for Fatality rate on Frankliniella occidentalis (%): Table 3
Procedure: (§1) For determination of insecticidal activity, the test method was as follows: a test solution with a desired concentration was prepared by dissolving a test compound sample in a suitable solvent (the kind of solvent was such as acetone, methanol, DMSO, etc., and was selected according to its dissolving ability for the sample). The test cell was composed of a small open container with 12-15 day old radish plants inside. The plants were pre-infested by placing 30-40 pests located on one leaf cut from the cultivated plant on one leaf of the test plant (leaf cutting method). As the leaves dehydrated, the pests moved on the test plants. After the pre-infesting, the soil of the test cells was covered with a layer of sand.
The test method was as follows: the test was repeated for three times, and after spraying the formulated test compound, each test unit was allowed to dry for 1 hour, and then a black mesh cover was placed at the top. The test units were kept in a growth chamber at 25° C. and 70% relative humidity for 6 days. The mortality (fatality rate) of the insects was then visually assessed for each test unit, and the fatality rate was calculated as follows:
[formula] (1) Test Results for the Control of Frankliniella occidentalis by Exemplary Example Compounds

[2] = test system: Plutella xylostella; test: Insecticidal activity, spray on pre-infested radish plants: Plutella xylostella; settings: for pest or weed control at 0.1 ppm / pest or weed control at 1 ppm / pest or weed control at 10 ppm: Plutella xylostella, 144 h, read-out: fatality rate on Plutella xylostella; for Fatality rate on Plutella xylostella (%): Table 3
Procedure: as §1
(§2) The test method was as follows: the test was repeated for three times, and after spraying the formulated test compound, each test unit was allowed to dry for 1 hour, and then a black mesh cover was placed at the top. The test units were kept in a growth chamber at 25° C. and 70% relative humidity for 6 days. The mortality (fatality rate) of the insects was then visually assessed for each test unit, and the fatality rate was calculated as follows: […]

[3] = test system: Pieris rapae; test: Insecticidal activity, spray on pre-infested radish plants: Pieris rapae; settings: 144 h, read-out: fatality rate on Pieris rapae
Procedure: as §1, §2

[4] = test system: Mythimna separata; test: Insecticidal activity, spray on pre-infested radish plants: Mythimna separata; settings: for pest or weed control at 0.1 ppm / pest or weed control at 1 ppm / pest or weed control at 10 ppm: Mythimna separata, 144 h, read-out: fatality rate on Mythimna separata; for Fatality rate on Mythimna separata (%): Table 3
Procedure: as §1, §2

[5] = test system: Spodoptera litura; test: Insecticidal activity, spray on pre-infested radish plants: Spodoptera litura; settings: 144 h, read-out: fatality rate on Spodoptera litura
Procedure: as §1, §2

[6] = test system: Chilo suppressalis; test: Insecticidal activity, spray on pre-infested radish plants: Chilo suppressalis; settings: for pest or weed control at 0.1 ppm / pest or weed control at 1 ppm / pest or weed control at 10 ppm: Chilo suppressalis, 144 h, read-out: fatality rate on Chilo suppressalis; for Fatality rate on Chilo suppressalis (%): Table 3
Procedure: as §1, §2

[7] = test system: Cnaphalocrocis medinalis; test: Insecticidal activity, spray on pre-infested radish plants: Cnaphalocrocis medinalis; settings: 144 h, read-out: fatality rate on Cnaphalocrocis medinalis
Procedure: as §1, §2

[8] = test system: Tetranychus cinnabarinus; test: Acaricidal activity, slide immersion of female adult mites: Tetranychus cinnabarinus; settings: read-out: fatality rate on Tetranychus cinnabarinus
Procedure: The test method was as follows: a test solution with a desired concentration was prepared by dissolving a test compound sample in a suitable solvent (the kind of solvent was such as acetone, methanol, DMSO, etc., and was selected according to its dissolving ability for the sample). A double-sided adhesive tape was cut into 2-3 cm long pieces, the pieces were attached to one end of a microscope slide, paper pieces on the adhesive tape were removed using tweezers, female adult mites which were consistent in size, bright in body color and lively in action were selected using a zero-size brush pen, the backs of the female adult mites were adhered to the double-sided adhesive tape (note: the adhesion should not cover mite feet, mite whiskers and mouthparts), with 4 rows of mites adhered to each piece and 10 heads of the mites adhered to each row.
One end of the glass slide with the mites was immersed into a drug liquid, with slightly shaking for 5 seconds, and then the slide was taken out. The excess drug liquid around the mite body and is surroundings is quickly sucked off using absorbent paper. The slide was placed in the biochemical incubator described above, and the results were checked by using binoculars after 24 hours. The mites were slightly touched by using a brush pen, the mites with immobility in feet were considered to be dead, and the fatality rate was calculated. The fatality rate was calculated as follows: […]

[9] = dose 1 ppm, immersion 5 seconds, checked after 24 hours
[10] = dose 10 ppm, immersion 5 seconds, checked after 24 hours
[11] = dose 25 ppm, immersion 5 seconds, checked after 24 hours

Cc1cc(C2=NOC(c3cc(Cl)c(F)c(Cl)c3)(C(F)(F)F)C2)ccc1C(=O)NCCc1ncc(C(F)(F)F)cc1Cl (stereo not drawn) [Compound 19]
pest or weed control at 1 ppm [1]: > 80% | pest or weed control at 10 ppm [1]: > 80% | pest or weed control at 25 ppm [1]: > 80% | pest or weed control at 0.1 ppm [2]: > 80% | pest or weed control at 1 ppm [2]: > 80% | pest or weed control at 10 ppm [2]: > 80% | pest or weed control at 0.1 ppm [3]: > 80% | pest or weed control at 1 ppm [3]: > 80% | pest or weed control at 10 ppm [3]: > 80% | pest or weed control at 0.1 ppm [4]: > 80% | pest or weed control at 1 ppm [4]: > 80% | pest or weed control at 10 ppm [4]: > 80% | pest or weed control at 0.1 ppm [5]: > 80% | pest or weed control at 1 ppm [5]: > 80% | pest or weed control at 10 ppm [5]: > 80% | pest or weed control at 0.1 ppm [6]: > 80% | pest or weed control at 1 ppm [6]: > 80% | pest or weed control at 10 ppm [6]: > 80% | pest or weed control at 0.1 ppm [7]: > 80% | pest or weed control at 1 ppm [7]: > 80% | pest or weed control at 10 ppm [7]: > 80% | pest or weed control at 1 ppm ([8]; 24 h): > 80% | pest or weed control at 10 ppm ([8]; 24 h): > 80% | pest or weed control at 25 ppm ([8]; 24 h): > 80%

Cc1cc(C2=NOC(c3cc(F)c(F)c(F)c3)(C(F)(F)F)C2)ccc1C(=O)NCc1cnc(Cl)cc1C(F)(F)F (stereo not drawn) [Compound 6]
pest or weed control at 1 ppm ([1]; dose 1 ppm, spray, 6 days): > 80% | pest or weed control at 10 ppm ([1]; dose 10 ppm, spray, 6 days): > 80% | pest or weed control at 25 ppm ([1]; dose 25 ppm, spray, 6 days): > 80% | pest or weed control at 0.1 ppm ([2]; dose 0.1 ppm, spray, 6 days): > 80% | pest or weed control at 1 ppm ([2]; dose 1 ppm, spray, 6 days): > 80% | pest or weed control at 10 ppm ([2]; dose 10 ppm, spray, 6 days): > 80% | pest or weed control at 0.1 ppm ([3]; dose 0.1 ppm, spray, 6 days): > 80% | pest or weed control at 1 ppm ([3]; dose 1 ppm, spray, 6 days): > 80% | pest or weed control at 10 ppm ([3]; dose 10 ppm, spray, 6 days): > 80% | pest or weed control at 0.1 ppm ([4]; dose 0.1 ppm, spray, 6 days): > 80% | pest or weed control at 1 ppm ([4]; dose 1 ppm, spray, 6 days): > 80% | pest or weed control at 10 ppm ([4]; dose 10 ppm, spray, 6 days): > 80% | pest or weed control at 0.1 ppm ([5]; dose 0.1 ppm, spray, 6 days): > 80% | pest or weed control at 1 ppm ([5]; dose 1 ppm, spray, 6 days): > 80% | pest or weed control at 10 ppm ([5]; dose 10 ppm, spray, 6 days): > 80% | pest or weed control at 0.1 ppm ([6]; dose 0.1 ppm, spray, 6 days): > 80% | pest or weed control at 1 ppm ([6]; dose 1 ppm, spray, 6 days): > 80% | pest or weed control at 10 ppm ([6]; dose 10 ppm, spray, 6 days): > 80% | pest or weed control at 0.1 ppm ([7]; dose 0.1 ppm, spray, 6 days): > 80% | pest or weed control at 1 ppm ([7]; dose 1 ppm, spray, 6 days): > 80% | pest or weed control at 10 ppm ([7]; dose 10 ppm, spray, 6 days): > 80% | pest or weed control at 1 ppm [8, 9]: > 80% | pest or weed control at 10 ppm [8, 10]: > 80% | pest or weed control at 25 ppm [8, 11]: > 80%

Cc1cc(C2=NOC(c3cc(F)c(F)c(F)c3)(C(F)(F)F)C2)ccc1C(=O)NCc1ccc(Cl)nc1 (stereo not drawn) [Compound 2, N-((6-chloropyridin-3-yl)methyl)-2-methyl-4-(5-(trifluoromethyl)-5-(3,4,5-trifluorophenyl)-4,5-dihydroisoxazol-3-yl)benzamide]
Fatality rate on Frankliniella occidentalis (%) ([1]; 1 ppm): 90% | Fatality rate on Frankliniella occidentalis (%) ([1]; 10 ppm): 100% | Fatality rate on Frankliniella occidentalis (%) ([1]; 25 ppm): 100% | pest or weed control at 1 ppm ([1]; dose 1 ppm, spray, 6 days): > 80% | pest or weed control at 10 ppm ([1]; dose 10 ppm, spray, 6 days): > 80% | pest or weed control at 25 ppm ([1]; dose 25 ppm, spray, 6 days): > 80% | Fatality rate on Plutella xylostella (%) ([2]; 0.1 ppm): 85% | Fatality rate on Plutella xylostella (%) ([2]; 1 ppm): 100% | Fatality rate on Plutella xylostella (%) ([2]; 10 ppm): 100% | pest or weed control at 0.1 ppm ([2]; dose 0.1 ppm, spray, 6 days): > 80% | pest or weed control at 1 ppm ([2]; dose 1 ppm, spray, 6 days): > 80% | pest or weed control at 10 ppm ([2]; dose 10 ppm, spray, 6 days): > 80% | pest or weed control at 0.1 ppm ([3]; dose 0.1 ppm, spray, 6 days): > 80% | pest or weed control at 1 ppm ([3]; dose 1 ppm, spray, 6 days): > 80% | pest or weed control at 10 ppm ([3]; dose 10 ppm, spray, 6 days): > 80% | Fatality rate on Mythimna separata (%) ([4]; 0.1 ppm): 85% | Fatality rate on Mythimna separata (%) ([4]; 1 ppm): 100% | Fatality rate on Mythimna separata (%) ([4]; 10 ppm): 100% | pest or weed control at 0.1 ppm ([4]; dose 0.1 ppm, spray, 6 days): > 80% | pest or weed control at 1 ppm ([4]; dose 1 ppm, spray, 6 days): > 80% | pest or weed control at 10 ppm ([4]; dose 10 ppm, spray, 6 days): > 80% | pest or weed control at 0.1 ppm ([5]; dose 0.1 ppm, spray, 6 days): > 80% | pest or weed control at 1 ppm ([5]; dose 1 ppm, spray, 6 days): > 80% | pest or weed control at 10 ppm ([5]; dose 10 ppm, spray, 6 days): > 80% | Fatality rate on Chilo suppressalis (%) ([6]; 0.1 ppm): 80% | Fatality rate on Chilo suppressalis (%) ([6]; 1 ppm): 100% | Fatality rate on Chilo suppressalis (%) ([6]; 10 ppm): 100% | pest or weed control at 0.1 ppm ([6]; dose 0.1 ppm, spray, 6 days): > 80% | pest or weed control at 1 ppm ([6]; dose 1 ppm, spray, 6 days): > 80% | pest or weed control at 10 ppm ([6]; dose 10 ppm, spray, 6 days): > 80% | pest or weed control at 0.1 ppm ([7]; dose 0.1 ppm, spray, 6 days): > 80% | pest or weed control at 1 ppm ([7]; dose 1 ppm, spray, 6 days): > 80% | pest or weed control at 10 ppm ([7]; dose 10 ppm, spray, 6 days): > 80% | pest or weed control at 1 ppm [8, 9]: > 80% | pest or weed control at 10 ppm [8, 10]: > 80% | pest or weed control at 25 ppm [8, 11]: > 80%
